Where two headings read alike, the source gives them in different places. Ends that are not written are not given here.

Assay [1] has as its target T1, human JMJD5 (Homo sapiens, UniProt Q8N371).
T1 construct: made in house; host or cells: Escherichia coli BL21(DE3)
In words: SPE-MS JMJD5 turnover and kinetic assay (RPS6_128–148 hydroxylation). The assay is classed as biochemical. The following applies: for JMJD5 (%): RPS6_128–148 hydroxylation with the compound as cosubstrate: absence of 2OG, JMJD5 0.15 μM, 2OG derivative 400 μM, Fe(II) 20 μM, RPS6_128–148 2.0 μM; for k app cat: calculated from vmax.

Assay [2] deals with T1, human JMJD5. In words: SPE-MS JMJD5 inhibition assay. The format is biochemical. The following applies: JMJD5 0.15 μM, 2OG 2.0 μM, Fe(II) 2.0 μM, LAA 100 μM, RPS6_128–148 2.0 μM; read-out: IC50 JMJD5. The protocol: Solutions of the small-molecules (100% DMSO) were dry dispensed across 384 well polypropylene V-bottom assay microplates (Greiner) in an approximately three-fold and 11-point dilution series (100 μM inhibitor top concentration; the final DMSO assay concentration was kept constant at 0.5%v/v) using an ECHO 550 acoustic dispenser (Labcyte). […] Each reaction was performed in technical duplicates in adjacent wells of the assay plates; additionally, assays were performed in two independent duplicates on different days using different inhibitor solutions.
The Enzyme Mixture (25 μL per well), containing 0.3 μM His6-thioredoxin-tagged JMJD5 in buffer (50 mM MOPS, pH 7.5), was dispensed across the inhibitor-containing 384-well plates with a multidrop dispenser (ThermoFischer Scientific) at 20 °C under an ambient atmosphere. The plates were subsequently centrifuged (1000 rpm, 5 s) and incubated for 15 min at 20 °C. […] The plates were centrifuged (1000 rpm, 5 s) and, after incubating for 30 min, the enzyme reaction was stopped by the addition of 10%v/v aqueous formic acid (5 μL per well). The plates were then centrifuged (1000 rpm, 30 s) and analyzed by MS.
Z′-Factors were calculated according to the cited literature using Microsoft Excel.[61]

Assay [3] addresses T2, human KDM4E (Homo sapiens, UniProt B2RXH2).
T2 sequence (B2RXH2 1-506): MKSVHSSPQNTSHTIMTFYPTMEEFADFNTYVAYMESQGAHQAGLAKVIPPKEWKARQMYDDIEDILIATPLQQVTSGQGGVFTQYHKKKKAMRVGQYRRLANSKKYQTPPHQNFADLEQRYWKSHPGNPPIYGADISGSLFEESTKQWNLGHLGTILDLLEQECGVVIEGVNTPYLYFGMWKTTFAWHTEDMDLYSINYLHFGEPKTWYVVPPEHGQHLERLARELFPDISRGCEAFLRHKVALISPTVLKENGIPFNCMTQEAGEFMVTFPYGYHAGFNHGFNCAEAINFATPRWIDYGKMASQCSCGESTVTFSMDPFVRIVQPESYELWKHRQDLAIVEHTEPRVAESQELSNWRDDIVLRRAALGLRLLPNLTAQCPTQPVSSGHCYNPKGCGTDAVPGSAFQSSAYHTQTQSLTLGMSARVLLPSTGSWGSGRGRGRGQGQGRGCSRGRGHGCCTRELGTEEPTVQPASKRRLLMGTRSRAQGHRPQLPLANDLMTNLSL
In words: KDM4E SPE-MS turnover and kinetic assay (H3 K9(me3) peptide demethylation). The assay is classed as biochemical. The following applies: for KDM4E (%): substrate demethylation with the compound as cosubstrate: absence of 2OG, KDM4E 0.15 μM, 2OG derivative 330 μM, Fe(II) 50 μM, ARTAQTARK(me3)STGGIA 10.0 μM.

Assay [4] addresses T2, human KDM4E. Nature of the assay: KDM4E SPE-MS inhibition assay. The assay is classed as biochemical. The following applies: KDM4E 0.15 μM, peptide 10.0 μM, LAA 100 μM, FAS 10 μM, 2OG 10 μM. Here is the method:
KDM4E turnover and inhibition assays were performed as reported using recombinant human KDM4E and a histone 3 K9(me3) derivative (i.e. […](me3)STGGIA)[41] as substrate.[95] […]

Assay [5] relates to human FIH. The note with it: absence of 2OG, FIH 0.15 μM, 2OG derivative 330 μM, Fe(II) 50 μM, HIF-1α788–822 5.0 μM, cited from earlier work.
Assay [6] deals with human FIH. The arrangement: method as in ref 10 (ESI). The note with it: FIH 0.15 μM, HIF-1α788-822 5.0 μM, 2OG 10 μM; ref 10 (ESI); cited from earlier work.
Assay [7] deals with human AspH. The following applies: cited from earlier work; for AspH (%): substrate hydroxylation with the compound as cosubstrate: absence of 2OG, AspH 0.1 μM, 2OG derivative 330 μM, Fe(II) 50 μM, hFX-CP101–119 2.0 μM.
In assay [8] the test system is human AspH. The arrangement: method as in ref 9 (ESI). The note with it: AspH 0.05 μM, hFX-CP101-119 1.0 μM, 2OG 3.0 μM; ref 9 (ESI); cited from earlier work.
For a further assay, the system named is JMJD5. The following applies: cited from earlier work; for K m: 10.0 μM JMJD5, 50 mM HEPES pH 7.5, read-out: Km JMJD5 (MALDI-TOF MS assay).
A further assay relates to PHD2. Also on record: method as in PMID 18952043. The note with it: PHD2 1.0 nM, biotin-DLEMLAPYIPMDDDFQ substrate; cited from earlier work.
The mark [9] stands for this setting: AspH315–758 0.1 μM, hFX–CP101–119 substrate.

T1 sequence (Q8N371 whole entry): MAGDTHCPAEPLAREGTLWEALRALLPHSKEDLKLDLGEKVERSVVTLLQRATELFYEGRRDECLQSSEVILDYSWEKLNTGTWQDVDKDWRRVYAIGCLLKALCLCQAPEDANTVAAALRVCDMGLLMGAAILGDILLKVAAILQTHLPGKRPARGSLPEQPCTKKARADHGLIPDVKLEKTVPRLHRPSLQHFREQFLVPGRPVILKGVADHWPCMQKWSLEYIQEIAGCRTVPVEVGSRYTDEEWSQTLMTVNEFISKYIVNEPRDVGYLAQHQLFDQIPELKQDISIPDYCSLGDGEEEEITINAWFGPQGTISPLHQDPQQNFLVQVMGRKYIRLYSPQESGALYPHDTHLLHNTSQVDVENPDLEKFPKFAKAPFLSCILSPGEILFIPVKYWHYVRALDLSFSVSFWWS

What is called IC50 is the concentration at which inhibition is half-maximal. Take `CC(CC(=O)O)C(=O)C(=O)O` (stereo not drawn) [2OG derivative 1, 3-methyl-2OG]: on human JMJD5 [1] (listed as Entry 2), the “JMJD5 (%): RPS6_128–148 hydroxylation with the compound as cosubstrate” value (“JMJD5 (%): RPS6_128–148 hydroxylation” for short) is recorded as ~ 10%. On human JMJD5 [1] (after 50 min, 10 μM cosubstrate, 0.15 μM JMJD5, 10 μM Fe(II), 2.0 μM RPS6_128–148), the “JMJD5-catalyzed RPS6_128–148 hydroxylation, time course” value was approximately 20%. For the same compound, the IC50 is more than 50 µM on human JMJD5 [2], more than 30 µM against human KDM4E [4], more than 50 µM with human FIH [6] and more than 50 µM in the assay with human AspH [8]. The “fold less efficient KDM4E cosubstrate than 2OG” value at human KDM4E [3] is approximately 7 fold. On human KDM4E [3] (listed as Entry 2), the “KDM4E (%): substrate demethylation with the compound as cosubstrate” value (“KDM4E (%): substrate demethylation” below) is on record as ~ 10%. In addition, in the assay with human FIH [5] (listed as Entry 2), the “FIH (%): substrate hydroxylation with the compound as cosubstrate” value (from here on “FIH (%): substrate hydroxylation”) is given as ~ 55%. The “AspH (%): substrate hydroxylation with the compound as cosubstrate” value (“AspH (%): substrate hydroxylation” for short) with human AspH [7] (listed as Entry 2) is given as more than 95%.
With `CC(C)(CC(=O)C(=O)O)C(=O)O` [2OG derivative 9, 4,4-dimethyl-2OG], the “KDM4E (%): substrate demethylation” value at human KDM4E [3] (listed as Entry 13) is recorded as less than 1%. The IC50 was more than 30 µM at human KDM4E [4], more than 50 µM with human FIH [6] and approximately 0.3 µM with human AspH [8]. In addition, the “FIH (%): substrate hydroxylation” value in the assay on human FIH [5] (listed as Entry 13) is less than 5%. Moreover, the “AspH (%): substrate hydroxylation” value in the assay on human AspH [7] (listed as Entry 13) was less than 1%.
Turning to `O=C(O)C(=O)C1(C(=O)O)CC1` [2OG derivative 25], the “JMJD5 (%): RPS6_128–148 hydroxylation” value at human JMJD5 [1] is given as less than 1%. Besides, the IC50 is more than 50 µM at human JMJD5 [2], more than 50 µM against human KDM4E [4], more than 50 µM in the assay with human FIH [6] and 3.3 ± 1 µM in the assay with human AspH [8]. For the same compound, at human KDM4E [3], the “KDM4E (%): substrate demethylation” value was less than 1%. Besides, the “FIH (%): substrate hydroxylation” value in the assay with human FIH [5] was less than 1%. The “AspH (%): substrate hydroxylation” value in the assay with human AspH [7] is given as less than 1%.
For the compound `O=C(O)C(=O)c1ccc(C(=O)O)cc1F` [2OG derivative 28], the “JMJD5 (%): RPS6_128–148 hydroxylation” value on human JMJD5 [1] is listed as less than 1%. In addition, the IC50 on human JMJD5 [2], on human KDM4E [4], with human FIH [6] and in the assay with human AspH [8] was more than 50 µM in each case. Moreover, at human KDM4E [3], the “KDM4E (%): substrate demethylation” value is less than 1%. In addition, the “FIH (%): substrate hydroxylation” value with human FIH [5] was less than 1%. Moreover, the “AspH (%): substrate hydroxylation” value with human AspH [7] is ~ 45%.
In the case of `O=C(O)C(=O)c1ccc(C(=O)O)c(F)c1` [2OG derivative 29], the “JMJD5 (%): RPS6_128–148 hydroxylation” value at human JMJD5 [1] was less than 1%. In addition, the IC50 at human JMJD5 [2], against human KDM4E [4], in the assay with human FIH [6] and with human AspH [8] was more than 50 µM throughout. For the same compound, the “KDM4E (%): substrate demethylation” value at human KDM4E [3] is reported as less than 1%. The “FIH (%): substrate hydroxylation” value in the assay on human FIH [5] is recorded as less than 1%. Further, in the assay on human AspH [7], the “AspH (%): substrate hydroxylation” value was ~ 8%.
Regarding `O=C(O)C(=O)c1ccc(C(=O)O)cc1Br` [2OG derivative 30], the “JMJD5 (%): RPS6_128–148 hydroxylation” value at human JMJD5 [1] was less than 1%. Also, the IC50 at human JMJD5 [2], against human KDM4E [4], with human FIH [6] and in the assay with human AspH [8] was more than 50 µM each time. Further, on human KDM4E [3], the “KDM4E (%): substrate demethylation” value is reported as less than 1%. In the assay with human FIH [5], the “FIH (%): substrate hydroxylation” value is less than 1%. The “AspH (%): substrate hydroxylation” value with human AspH [7] was ~ 20%.
Turning to `O=C(O)C(=O)c1ccc(C(=O)O)c(Br)c1` [2OG derivative 31], the “JMJD5 (%): RPS6_128–148 hydroxylation” value on human JMJD5 [1] was less than 1%. For the same compound, the IC50 at human JMJD5 [2], against human KDM4E [4], in the assay with human FIH [6] and with human AspH [8] was more than 50 µM each time. Further, on human KDM4E [3], the “KDM4E (%): substrate demethylation” value is recorded as less than 1%. Also, the “FIH (%): substrate hydroxylation” value with human FIH [5] was less than 1%. In the assay with human AspH [7], the “AspH (%): substrate hydroxylation” value is ~ 8%.
As for `Cc1cc(C(=O)O)ccc1C(=O)C(=O)O` [2OG derivative 32], on human JMJD5 [1], the “JMJD5 (%): RPS6_128–148 hydroxylation” value is given as less than 1%. For the same compound, the IC50 at human JMJD5 [2], on human KDM4E [4], in the assay on human FIH [6] and with human AspH [8] was more than 50 µM in each case. Further, the “KDM4E (%): substrate demethylation” value at human KDM4E [3] was less than 1%. Also, in the assay on human FIH [5], the “FIH (%): substrate hydroxylation” value is listed as less than 1%. For the same compound, in the assay on human AspH [7], the “AspH (%): substrate hydroxylation” value is on record as ~ 5%.
Regarding `O=C(O)CNC(=O)c1ncc(-c2cccc(Cl)c2)cc1O` [vadadustat], in the assay with JMJD5 (read-out: IC50 JMJD5 (MALDI-TOF MS assay)), the IC50 was approximately 54 µM.
With “RPS6_129–144: truncated version of the RPS6_128–148 substrate peptide used in MALDI-TOF MS assays (VPRRLGPKRASRIRKL-NH2; UniProt P62753 129-144, looked up, fragment)”, the K m in the assay on JMJD5 was approximately 60 µM.
For “ammonium iron(II) sulfate hexahydrate [Fe(II)]”, the v app max on human JMJD5 [1] (0.15 μM JMJD5, 50 mM MOPS pH 7.5, 20 °C, 100 μM LAA present) came out at 0.75 ± 0.03 nM/s; at human JMJD5 [1] (0.15 μM JMJD5, absence of LAA) it was 0.73 ± 0.05 nM/s. Moreover, the k app cat is 0.005 ± 0.0002 s⁻¹ on human JMJD5 [1] (0.15 μM JMJD5, 50 mM MOPS pH 7.5, 20 °C, LAA present) and 0.0049 ± 0.0004 s⁻¹ at human JMJD5 [1] (0.15 μM JMJD5, absence of LAA). On human JMJD5 [1] (0.15 μM JMJD5, absence of LAA), this compound showed a K app m of 0.46 ± 0.11 µM. Besides, the K m in the assay on human AspH [7] (setting [9]) is 1.42 ± 0.16 µM; with PHD2, 0.89 ± 0.07 µM; in the assay on JMJD5, approximately 2.7 µM. Besides, the k cat in the assay on human AspH [7] (setting [9]) is 0.19 ± 0.03 s⁻¹.
